Experiment in all cases: relative viability (nuclei count vs DMSO), 5 days (fraction); higher = more cells survive
Compound in assay [1]: C1CNCCC1C2=CC(=NN2)C3=CC=NC=C3 + O=C(c1cc(Cc2n[nH]c(=O)c3ccccc23)ccc1F)N1CCN(C(=O)C2CC2)CC1 [Olaparib] (partner 8 µM)
Put shortly:
(§1)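 Five library-drug doses in √10 steps were combined with a fixed anchor-drug dose, or a single drug was given alone, by pin tool to lung cancer cell lines in 1536-well plates the day after seeding. Nuclei were stained and counted after 5 days. Relative viability is the nuclei count in treated wells over that in vehicle wells, taken as the median of duplicate plates.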

Compound in assay [2]: C[C@@H](N)c1ccc(C(=O)Nc2ccnc3[nH]ccc23)cc1 + CS(=O)(=O)CCNCc1ccc(-c2ccc3ncnc(Nc4ccc(OCc5cccc(F)c5)c(Cl)c4)c3c2)o1 [Lapatinib] (partner 2 µM)
An outline of the steps:
as §1

Compound in assay [3]: C[C@@H](N)c1ccc(C(=O)Nc2ccnc3[nH]ccc23)cc1 + CC(=O)Nc1cccc(-n2c(=O)n(C3CC3)c(=O)c3c(Nc4ccc(I)cc4F)n(C)c(=O)c(C)c32)c1 [Trametinib] (partner 0.02 µM)
An outline of the steps:
as §1

Compound in assay [4]: C1CNCCC1C2=CC(=NN2)C3=CC=NC=C3 + Cc1nc(NC(=O)N2CCC[C@H]2C(N)=O)sc1-c1ccnc(C(C)(C)C(F)(F)F)c1 [Alpelisib] (partner 2 µM)
Put shortly:
as §1

Regarding 201T, the relative viability in assay [1] (first compound 0.08 µM) amounted to 0.832; in assay [1] (first compound 0.8 µM), 0.863; in assay [1] (first compound 2.53 µM), 0.832; in assay [1] (first compound 8 µM), 0.858; in assay [2] (first compound 0.04 µM), 1; in assay [2] (first compound 0.1265 µM) it was 0.989. Besides, the relative viability came to 1.09 in assay [2] (first compound 0.4 µM); 0.971 in assay [2] (first compound 1.265 µM); 1.24 in assay [2] (first compound 4 µM); 0.701 in assay [3] (first compound 0.04 µM); 0.712 in assay [3] (first compound 0.1265 µM); 0.733 in assay [3] (first compound 0.4 µM). The relative viability came to 0.758 in assay [3] (first compound 1.265 µM); 0.815 in assay [3] (first compound 4 µM); 1.06 in assay [4] (first compound 0.08 µM); 0.841 in assay [4] (first compound 0.8 µM); 1.04 in assay [4] (first compound 2.53 µM); 1.04 in assay [4] (first compound 8 µM).
On to A549, for which the relative viability in assay [1] (first compound 0.08 µM) was 0.345; in assay [1] (first compound 0.8 µM), 0.303; in assay [1] (first compound 2.53 µM), 0.435; in assay [1] (first compound 8 µM), 0.367; in assay [2] (first compound 0.04 µM), 1.1; in assay [2] (first compound 0.1265 µM) it was 0.895. Moreover, the relative viability in assay [2] (first compound 0.4 µM) was found to be 1.06; in assay [2] (first compound 1.265 µM), 0.924; in assay [2] (first compound 4 µM), 0.53; in assay [4] (first compound 0.08 µM), 0.55; in assay [4] (first compound 0.8 µM), 0.65; in assay [4] (first compound 2.53 µM), 0.881. For the same cell line, the relative viability in assay [4] (first compound 8 µM) was 0.848.
For the cell line A-427, the relative viability was 0.589 in assay [1] (first compound 0.08 µM); 0.775 in assay [1] (first compound 0.8 µM); 0.752 in assay [1] (first compound 2.53 µM); 0.716 in assay [1] (first compound 8 µM); 0.968 in assay [2] (first compound 0.04 µM); 1.07 in assay [2] (first compound 0.1265 µM). For the same cell line, the relative viability was 1 in assay [2] (first compound 0.4 µM); 0.885 in assay [2] (first compound 4 µM); 0.88 in assay [3] (first compound 0.04 µM); 0.876 in assay [3] (first compound 0.1265 µM); 0.953 in assay [3] (first compound 0.4 µM); 0.73 in assay [3] (first compound 1.265 µM). For the same cell line, the relative viability was 0.662 in assay [3] (first compound 4 µM); 1.05 in assay [4] (first compound 0.08 µM); 1.04 in assay [4] (first compound 0.8 µM); 1.07 in assay [4] (first compound 2.53 µM); 1.06 in assay [4] (first compound 8 µM).
With ABC-1, the relative viability was 0.826 in assay [1] (first compound 0.08 µM); 0.795 in assay [1] (first compound 0.8 µM); 1.15 in assay [1] (first compound 2.53 µM); 0.84 in assay [1] (first compound 8 µM); 1.16 in assay [2] (first compound 0.04 µM); 1.02 in assay [2] (first compound 0.1265 µM). Further, the relative viability worked out at 1.2 in assay [2] (first compound 0.4 µM); 1.36 in assay [2] (first compound 4 µM); 0.997 in assay [4] (first compound 0.08 µM); 0.857 in assay [4] (first compound 0.8 µM); 1.19 in assay [4] (first compound 2.53 µM); 1.13 in assay [4] (first compound 8 µM).
For BEN, the relative viability amounted to 1.01 in assay [1] (first compound 0.08 µM); 1.09 in assay [1] (first compound 0.8 µM); 1.2 in assay [1] (first compound 2.53 µM); 0.967 in assay [1] (first compound 8 µM); 0.706 in assay [2] (first compound 0.04 µM); 0.675 in assay [2] (first compound 0.1265 µM). In addition, the relative viability was found to be 0.99 in assay [2] (first compound 0.4 µM); 0.781 in assay [2] (first compound 1.265 µM); 0.438 in assay [2] (first compound 4 µM); 1.01 in assay [3] (first compound 0.04 µM); 0.87 in assay [3] (first compound 0.1265 µM); 0.984 in assay [3] (first compound 0.4 µM). Also, the relative viability in assay [3] (first compound 1.265 µM) amounted to 1.37; in assay [3] (first compound 4 µM), 0.85; in assay [4] (first compound 0.08 µM), 0.712; in assay [4] (first compound 0.8 µM), 1.07; in assay [4] (first compound 2.53 µM), 0.936; in assay [4] (first compound 8 µM) it was 0.984.
On to CAL-12T, for which the relative viability in assay [1] (first compound 0.08 µM) was 0.676; in assay [1] (first compound 0.8 µM), 0.665; in assay [1] (first compound 2.53 µM), 0.753; in assay [1] (first compound 8 µM), 0.719; in assay [2] (first compound 0.04 µM) it was 0.801; in assay [2] (first compound 0.1265 µM), 0.811. For the same cell line, the relative viability in assay [2] (first compound 0.4 µM) came out at 0.886; in assay [2] (first compound 4 µM) it was 0.875; in assay [3] (first compound 0.04 µM), 0.34; in assay [3] (first compound 0.1265 µM), 0.408; in assay [3] (first compound 0.4 µM), 0.38; in assay [3] (first compound 1.265 µM), 0.447. The relative viability came out at 0.409 in assay [3] (first compound 4 µM); 0.929 in assay [4] (first compound 0.08 µM); 1.56 in assay [4] (first compound 0.8 µM); 1.51 in assay [4] (first compound 2.53 µM); 1.28 in assay [4] (first compound 8 µM).
Regarding COR-L23, the relative viability was 0.287 in assay [1] (first compound 0.08 µM); 0.344 in assay [1] (first compound 0.8 µM); 0.323 in assay [1] (first compound 2.53 µM); 0.406 in assay [1] (first compound 8 µM); 0.948 in assay [2] (first compound 0.04 µM); 1.01 in assay [2] (first compound 0.1265 µM). Besides, the relative viability is 0.897 in assay [2] (first compound 0.4 µM); 0.895 in assay [2] (first compound 1.265 µM); 0.576 in assay [2] (first compound 4 µM); 0.414 in assay [3] (first compound 0.04 µM); 0.591 in assay [3] (first compound 0.1265 µM); 0.604 in assay [3] (first compound 0.4 µM). In addition, the relative viability worked out at 0.262 in assay [3] (first compound 1.265 µM); 0.389 in assay [3] (first compound 4 µM); 0.821 in assay [4] (first compound 0.08 µM); 0.925 in assay [4] (first compound 0.8 µM); 0.969 in assay [4] (first compound 2.53 µM); 0.736 in assay [4] (first compound 8 µM).
On to COR-L 105, for which the relative viability in assay [1] (first compound 0.08 µM) was 0.7; in assay [1] (first compound 0.8 µM), 0.721; in assay [1] (first compound 2.53 µM), 0.675; in assay [1] (first compound 8 µM) it was 0.746; in assay [2] (first compound 0.04 µM) it was 0.305; in assay [2] (first compound 0.1265 µM) it was 0.355. Besides, the relative viability stood at 0.376 in assay [2] (first compound 0.4 µM); 0.257 in assay [2] (first compound 1.265 µM); 0.364 in assay [2] (first compound 4 µM); 0.441 in assay [3] (first compound 0.04 µM); 0.518 in assay [3] (first compound 0.1265 µM); 0.449 in assay [3] (first compound 0.4 µM). Also, the relative viability in assay [3] (first compound 1.265 µM) is 0.417; in assay [3] (first compound 4 µM) it was 0.458; in assay [4] (first compound 0.08 µM), 0.954; in assay [4] (first compound 0.8 µM) it was 1.05; in assay [4] (first compound 2.53 µM) it was 1.11; in assay [4] (first compound 8 µM), 0.852.

(Values after the supplement of paper PMC10307832.)
